# Activity calls are given as the source filed them. The rule behind the calls is not given here.
# What was measured:
# K562 [1] = test: Growth inhibition of human K562 cells at 10 uM after 24 hrs by MTT assay relative to control; format: functional; conditions: K562, 24 h, read-out: GI
# K562 [2] = test: Cytotoxicity against human K562 cells after 48 hrs by MTT assay; format: functional, cell-based; conditions: K562, 48 h
# K562 [3] = test: Induction of morphological changes in human K562 cells assessed as reduction in cell volume at 0.75 to 2.5 uM after 24 hrs by light microscopic method; format: functional, cell-based
# K562 [4] = test: Cell cycle arrest in human K562 cells assessed as accumulation at G0/G1 phase at 2.5 uM after 48 hrs by propidium iodide staining based flow cytometry (reference value: 67.4%); format: functional
# [5] = target: T1, c-Jun N-terminal kinase, JNK (Homo sapiens) (UniProt P45983+P53779+P45984); test: Induction of JNK phosphorylation in human K562 cells assessed as ratio of phosphorylated JNK to beta-tubulin at 2.5 uM after 48 hrs by Western blot analysis (reference value: 1); format: cell-based
# K562 [6] = test: Cell cycle arrest in human K562 cells assessed as accumulation at sub G0/G1 phase at 2.5 uM after 24 hrs by propidium iodide staining based flow cytometry (reference value: 3.1%); format: functional
# [7] = target: Serine-protein kinase ATM (Homo sapiens) (UniProt Q13315); test: Activation of ATM phosphorylation in human K562 cells assessed as ratio of phosphorylated ATM to beta-tubulin level at 750 nM after 24 hrs by Western blot analysis (reference value: 0.2); format: cell-based
# K562 [8] = test: Cell cycle arrest in human K562 cells assessed as accumulation at G2/M phase at 750 nM after 48 hrs by propidium iodide staining based flow cytometry (reference value: 17.7%); format: functional
# [9] = target: Serine-protein kinase ATM (Homo sapiens) (UniProt Q13315); test: Activation of ATM phosphorylation in human K562 cells assessed as ratio of phosphorylated H2AX at S139 to beta-tubulin level at 2.5 uM after 24 hrs by Western blot analysis (reference value: 1); format: cell-based
# K562 [10] = test: Induction of apoptosis in human K562 cells assessed as cell shrinkage at 0.75 to 2.5 uM after 24 to 48 hrs by Hoechst 33342/DAPI staining based fluorescence microscopic analysis; format: functional
# K562 [11] = test: Cytotoxicity against human K562 cells after 24 hrs by MTT assay; format: functional, cell-based; conditions: K562, 24 h
# K562 [12] = test: Induction of apoptosis in human K562 cells assessed as ratio of procaspase-3 to beta actin level at 750 nM after 48 hrs by Western blot analysis (reference value: 0.9); format: functional
# [13] = target: T1, c-Jun N-terminal kinase, JNK (Homo sapiens); test: Induction of JNK phosphorylation in human K562 cells assessed as ratio of phosphorylated JNK to beta-tubulin at 750 nM after 24 hrs by Western blot analysis (reference value: 1); format: cell-based
# K562 [14] = test: Cell cycle arrest in human K562 cells assessed as accumulation at G2/M phase at 2.5 uM after 24 hrs by propidium iodide staining based flow cytometry (reference value: 13.3%); format: functional
# [15] = target: Serine-protein kinase ATM (Homo sapiens) (UniProt Q13315); test: Activation of ATM phosphorylation in human K562 cells assessed as ratio of phosphorylated ATM to beta-tubulin level at 750 nM after 48 hrs by Western blot analysis (reference value: 0.2); format: cell-based
# [16] = target: Serine-protein kinase ATM (Homo sapiens) (UniProt Q13315); test: Activation of ATM phosphorylation in human K562 cells assessed as ratio of phosphorylated H2AX at S139 to beta-tubulin level at 750 nM after 48 hrs by Western blot analysis (reference value: 0.8); format: cell-based
# K562 [17] = test: Cell cycle arrest in human K562 cells assessed as accumulation at G2/M phase at 2.5 uM after 48 hrs by propidium iodide staining based flow cytometry (reference value: 17.7%); format: functional
# [18] = Selectivity index, ratio of IC50 for human 16HBE cells to IC50 for human HT-29 cells; format: functional
# K562 [19] = test: Cell cycle arrest in human K562 cells assessed as accumulation at G0/G1 phase at 2.5 uM after 24 hrs by propidium iodide staining based flow cytometry (reference value: 68.8%); format: functional
# K562 [20] = test: Induction of morphological changes in human K562 cells assessed as appearance of shrunken cytoplasm at 0.75 to 2.5 uM after 24 hrs by light microscopic method; format: functional, cell-based
# K562 [21] = test: Induction of apoptosis in human K562 cells assessed as ratio of procaspase-3 to beta actin level at 2.5 uM after 48 hrs by Western blot analysis (reference value: 0.9); format: functional
# K562 [22] = test: Cell cycle arrest in human K562 cells assessed as accumulation at sub G0/G1 phase at 2.5 uM after 48 hrs by propidium iodide staining based flow cytometry (reference value: 1.1%); format: functional
# K562 [23] = test: Induction of reactive oxygen species generation in human K562 cells at 0.75 to 2.5 uM after 5 to 24 hrs by H2DCFDA staining based fluorescence microscopic analysis; format: functional, cell-based
# [24] = target: T1, c-Jun N-terminal kinase, JNK (Homo sapiens); test: Induction of JNK phosphorylation in human K562 cells assessed as ratio of phosphorylated JNK to beta-tubulin at 2.5 uM after 24 hrs by Western blot analysis (reference value: 1); format: cell-based
# K562 [25] = test: Induction of apoptosis in human K562 cells assessed as DNA fragmentation at 0.75 to 2.5 uM after 24 to 48 hrs by Hoechst 33342/DAPI staining based fluorescence microscopic analysis; format: functional, cell-based
# [26] = Selectivity index, ratio of IC50 for human 16HBE cells to IC50 for human K562 cells; format: functional
# K562 [27] = test: Cell cycle arrest in human K562 cells assessed as accumulation at G2/M phase at 750 nM after 24 hrs by propidium iodide staining based flow cytometry (reference value: 13.3%); format: functional
# K562 [28] = test: Induction of apoptosis in human K562 cells assessed as ratio of procaspase-3 to beta actin level at 750 nM after 24 hrs by Western blot analysis (reference value: 1); format: functional
# MDA-MB-231 = test: Cytotoxicity against human MDA-MB-231 cells after 24 hrs by MTT assay; format: functional, cell-based; conditions: MDA-MB-231, 24 h
# 16HBE14o- = test: Cytotoxicity against human 16HBE cells after 24 hrs by MTT assay; format: cell-based
# [29] = target: Serine-protein kinase ATM (Homo sapiens) (UniProt Q13315); test: Activation of ATM phosphorylation in human K562 cells assessed as ratio of phosphorylated ATM to beta-tubulin level at 2.5 uM after 48 hrs by Western blot analysis (reference value: 0.2); format: cell-based
# K562 [30] = test: Induction of morphological changes in human K562 cells assessed as cellular fragmentation at 0.75 to 2.5 uM after 48 hrs by light microscopic method; format: functional, cell-based
# K562 [31] = test: Cell cycle arrest in human K562 cells assessed as accumulation at G0/G1 phase at 750 nM after 24 hrs by propidium iodide staining based flow cytometry (reference value: 68.8%); format: functional
# [32] = Selectivity index, ratio of IC50 for human 16HBE cells to IC50 for human MDA-MB-231 cells; format: functional
# HT-29 = test: Cytotoxicity against human HT-29 cells after 24 hrs by MTT assay; format: functional, cell-based; conditions: HT-29, 24 h
# [33] = target: Serine-protein kinase ATM (Homo sapiens) (UniProt Q13315); test: Activation of ATM phosphorylation in human K562 cells assessed as ratio of phosphorylated H2AX at S139 to beta-tubulin level at 750 nM after 24 hrs by Western blot analysis (reference value: 1); format: cell-based
# [34] = target: T1, c-Jun N-terminal kinase, JNK (Homo sapiens); test: Induction of JNK phosphorylation in human K562 cells assessed as ratio of phosphorylated JNK to beta-tubulin at 750 nM after 48 hrs by Western blot analysis (reference value: 1); format: cell-based
# K562 [35] = test: Induction of reactive oxygen species generation in human K562 cells at 0.75 to 2.5 uM after 48 hrs by H2DCFDA staining based fluorescence microscopic analysis; format: functional, cell-based
# K562 [36] = test: Induction of apoptosis in human K562 cells assessed as ratio of procaspase-3 to beta actin level at 2.5 uM after 24 hrs by Western blot analysis (reference value: 1); format: functional
# K562 [37] = test: Induction of morphological changes in human K562 cells assessed as reduction in cell number at 0.75 to 2.5 uM after 24 hrs by light microscopic method; format: functional, cell-based
# [38] = target: Serine-protein kinase ATM (Homo sapiens) (UniProt Q13315); test: Activation of ATM phosphorylation in human K562 cells assessed as ratio of phosphorylated ATM to beta-tubulin level at 2.5 uM after 24 hrs by Western blot analysis (reference value: 0.2); format: cell-based
# K562 [39] = test: Cell cycle arrest in human K562 cells assessed as accumulation at sub G0/G1 phase at 750 nM after 24 hrs by propidium iodide staining based flow cytometry (reference value: 3.1%); format: functional
# K562 [40] = test: Induction of apoptosis in human K562 cells assessed as chromatin condensation at 0.75 to 2.5 uM after 24 to 48 hrs by Hoechst 33342/DAPI staining based fluorescence microscopic analysis; format: functional, cell-based
# K562 [41] = test: Cell cycle arrest in human K562 cells assessed as accumulation at G0/G1 phase at 750 nM after 48 hrs by propidium iodide staining based flow cytometry (reference value: 67.4%); format: functional
# [42] = target: Serine-protein kinase ATM (Homo sapiens) (UniProt Q13315); test: Activation of ATM phosphorylation in human K562 cells assessed as ratio of phosphorylated H2AX at S139 to beta-tubulin level at 2.5 uM after 48 hrs by Western blot analysis (reference value: 0.8); format: cell-based
# K562 [43] = test: Cell cycle arrest in human K562 cells assessed as accumulation at sub G0/G1 phase at 750 nM after 48 hrs by propidium iodide staining based flow cytometry (reference value: 1.1%); format: functional
# Sequence of Serine-protein kinase ATM (Homo sapiens) (Q13315 whole entry, the tested form may be a part): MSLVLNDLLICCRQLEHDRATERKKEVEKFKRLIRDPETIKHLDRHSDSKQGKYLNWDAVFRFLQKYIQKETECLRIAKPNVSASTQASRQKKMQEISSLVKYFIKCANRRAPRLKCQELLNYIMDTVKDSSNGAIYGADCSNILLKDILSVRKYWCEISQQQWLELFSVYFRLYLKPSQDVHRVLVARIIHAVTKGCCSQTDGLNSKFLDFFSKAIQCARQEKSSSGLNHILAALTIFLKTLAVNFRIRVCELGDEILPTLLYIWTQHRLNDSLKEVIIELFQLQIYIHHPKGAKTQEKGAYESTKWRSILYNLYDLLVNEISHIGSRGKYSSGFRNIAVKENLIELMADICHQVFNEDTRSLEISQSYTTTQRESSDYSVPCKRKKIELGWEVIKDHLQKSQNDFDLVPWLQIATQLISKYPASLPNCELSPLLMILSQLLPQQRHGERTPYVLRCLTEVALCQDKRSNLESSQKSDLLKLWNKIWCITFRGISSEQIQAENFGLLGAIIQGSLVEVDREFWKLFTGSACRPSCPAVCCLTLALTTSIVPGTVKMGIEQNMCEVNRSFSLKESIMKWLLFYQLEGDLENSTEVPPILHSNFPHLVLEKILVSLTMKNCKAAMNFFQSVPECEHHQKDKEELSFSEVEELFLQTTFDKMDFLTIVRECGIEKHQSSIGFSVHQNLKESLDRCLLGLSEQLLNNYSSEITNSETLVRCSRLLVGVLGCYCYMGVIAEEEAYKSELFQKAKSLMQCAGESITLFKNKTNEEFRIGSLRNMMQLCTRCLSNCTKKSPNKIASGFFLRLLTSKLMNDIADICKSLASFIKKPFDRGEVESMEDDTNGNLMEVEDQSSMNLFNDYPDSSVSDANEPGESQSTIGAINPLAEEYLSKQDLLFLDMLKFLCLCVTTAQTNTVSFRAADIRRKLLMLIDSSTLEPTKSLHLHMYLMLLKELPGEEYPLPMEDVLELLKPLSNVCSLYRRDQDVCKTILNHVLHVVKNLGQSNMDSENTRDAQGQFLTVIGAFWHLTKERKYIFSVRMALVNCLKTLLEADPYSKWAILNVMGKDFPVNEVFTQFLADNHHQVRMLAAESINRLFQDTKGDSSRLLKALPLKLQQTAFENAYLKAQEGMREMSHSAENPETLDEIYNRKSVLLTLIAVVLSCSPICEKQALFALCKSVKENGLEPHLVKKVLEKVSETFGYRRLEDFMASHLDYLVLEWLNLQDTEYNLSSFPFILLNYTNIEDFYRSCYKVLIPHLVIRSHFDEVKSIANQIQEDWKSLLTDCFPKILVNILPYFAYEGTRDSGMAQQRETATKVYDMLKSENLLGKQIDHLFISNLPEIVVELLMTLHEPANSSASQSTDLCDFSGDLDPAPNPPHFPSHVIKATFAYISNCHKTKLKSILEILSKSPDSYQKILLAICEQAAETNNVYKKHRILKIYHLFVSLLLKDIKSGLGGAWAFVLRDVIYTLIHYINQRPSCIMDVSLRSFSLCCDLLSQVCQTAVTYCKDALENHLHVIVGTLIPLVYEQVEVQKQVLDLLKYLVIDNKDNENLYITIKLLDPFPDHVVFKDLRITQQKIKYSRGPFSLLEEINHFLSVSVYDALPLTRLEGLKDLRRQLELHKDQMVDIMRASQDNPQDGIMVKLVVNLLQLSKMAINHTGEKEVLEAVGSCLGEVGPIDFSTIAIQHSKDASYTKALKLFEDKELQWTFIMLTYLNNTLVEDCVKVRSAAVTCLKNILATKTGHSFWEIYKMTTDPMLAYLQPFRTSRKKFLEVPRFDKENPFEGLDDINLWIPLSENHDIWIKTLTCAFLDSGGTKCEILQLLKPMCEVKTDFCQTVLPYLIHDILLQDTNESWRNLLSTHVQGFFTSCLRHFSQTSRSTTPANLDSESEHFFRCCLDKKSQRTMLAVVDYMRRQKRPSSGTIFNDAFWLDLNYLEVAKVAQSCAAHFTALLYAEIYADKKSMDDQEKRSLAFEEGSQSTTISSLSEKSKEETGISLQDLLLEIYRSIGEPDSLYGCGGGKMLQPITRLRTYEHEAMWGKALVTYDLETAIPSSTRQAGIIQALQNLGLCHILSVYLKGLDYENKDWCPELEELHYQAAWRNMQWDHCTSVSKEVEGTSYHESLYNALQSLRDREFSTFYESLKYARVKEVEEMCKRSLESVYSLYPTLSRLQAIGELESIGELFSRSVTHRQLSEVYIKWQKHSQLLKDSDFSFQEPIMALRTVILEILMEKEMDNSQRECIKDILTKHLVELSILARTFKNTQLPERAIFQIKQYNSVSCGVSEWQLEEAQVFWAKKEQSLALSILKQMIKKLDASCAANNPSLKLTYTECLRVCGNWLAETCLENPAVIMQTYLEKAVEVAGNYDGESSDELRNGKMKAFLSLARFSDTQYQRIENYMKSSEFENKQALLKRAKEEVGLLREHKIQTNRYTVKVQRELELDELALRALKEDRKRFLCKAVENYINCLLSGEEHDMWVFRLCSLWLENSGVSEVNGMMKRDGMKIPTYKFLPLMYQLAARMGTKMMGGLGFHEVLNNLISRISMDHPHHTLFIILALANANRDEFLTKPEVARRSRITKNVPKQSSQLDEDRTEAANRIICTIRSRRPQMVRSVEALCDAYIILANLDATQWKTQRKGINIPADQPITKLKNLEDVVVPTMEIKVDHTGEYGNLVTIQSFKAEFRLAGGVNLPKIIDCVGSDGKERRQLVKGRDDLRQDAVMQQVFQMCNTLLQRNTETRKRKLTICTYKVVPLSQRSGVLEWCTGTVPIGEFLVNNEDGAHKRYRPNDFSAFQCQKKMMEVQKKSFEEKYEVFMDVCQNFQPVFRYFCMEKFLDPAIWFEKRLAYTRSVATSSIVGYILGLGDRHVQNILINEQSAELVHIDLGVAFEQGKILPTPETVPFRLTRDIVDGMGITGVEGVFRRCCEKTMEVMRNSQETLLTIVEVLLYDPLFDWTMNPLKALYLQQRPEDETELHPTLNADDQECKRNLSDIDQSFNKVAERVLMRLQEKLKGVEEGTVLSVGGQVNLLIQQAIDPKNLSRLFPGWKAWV
structure (smiles),measurement,setting,value
NC(=O)c1cc(I)ccc1NC(=O)c1ccc(-c2ccccc2)cc1,inhibition of growth at 10 µM,K562 [1],15%
same,IC50,K562 [2],15 µM
Cc1ccc(NC(=O)c2ccccc2-c2ccccc2)c(C(N)=O)c1,inhibition of growth at 10 µM,K562 [1],48.9%
COc1cc(NC(=O)[C@@H]2C[C@H]2c2ccccc2)c(C(N)=O)cc1OC,inhibition of growth at 10 µM,K562 [1],26.7%
NC(=O)c1cc(I)ccc1NC(=O)[C@@H]1C[C@H]1c1ccccc1,inhibition of growth at 10 µM,K562 [1],25%
same,IC50,K562 [2],10 µM
COc1ccc(NC(=O)c2ccc(-c3ccccc3)cc2)c(C(N)=O)c1,inhibition of growth at 10 µM,K562 [1],29.2%
NC(=O)c1cc(I)ccc1NC(=O)c1ccccc1-c1ccccc1,Activity,K562 [3],Active
same,Activity,K562 [4],50.5%
same,Ratio,[5],1.4
same,Activity,K562 [6],2.2%
same,Ratio,[7],1
same,Activity,K562 [8],30.5%
same,Ratio,[9],2.1
same,Activity,K562 [10],Active
same,IC50,K562 [11],0.5 µM
same,Ratio,K562 [12],0.5
same,Ratio,[13],0.8
same,Activity,K562 [14],74.6%
same,inhibition of growth at 10 µM,K562 [1],85%
same,Ratio,[15],0.5
same,Ratio,[16],2.2
same,Activity,K562 [17],13.4%
same,Ratio IC50,[18],3
same,Activity,K562 [19],14.9%
same,Activity,K562 [20],Active
same,Ratio,K562 [21],0.5
same,Activity,K562 [22],26.2%
same,Activity,K562 [23],inactive
same,Ratio,[24],1.2
same,Activity,K562 [25],Active
same,Ratio IC50,[26],60
same,Activity,K562 [27],37.1%
same,Ratio,K562 [28],0.8
same,IC50,MDA-MB-231,10 µM
same,IC50,16HBE14o-,30 µM
same,Ratio,[29],0.9
same,Activity,K562 [30],Active
same,Activity,K562 [31],54.9%
same,Ratio IC50,[32],3
same,IC50,HT-29,10 µM
same,Ratio,[33],1.5
same,Ratio,[34],1.2
same,Activity,K562 [35],Active
same,Ratio,K562 [36],0.8
same,Activity,K562 [37],Active
same,Ratio,[38],2.5
same,Activity,K562 [39],2.7%
same,Activity,K562 [40],Active
same,IC50,K562 [2],0.5 µM
same,Activity,K562 [41],48.6%
same,Ratio,[42],1.6
same,Activity,K562 [43],4%
COc1ccc(NC(=O)c2ccccc2-c2ccccc2)c(C(N)=O)c1,inhibition of growth at 10 µM,K562 [1],37%
COc1cc2c(c(OC)c1OC)-c1ccc(OC)c(=O)cc1[C@@H](NC(C)=O)CC2 [COLCHICINE],inhibition of growth at 10 µM,K562 [1],63.6%
Cc1ccc(NC(=O)[C@@H]2C[C@H]2c2ccccc2)c(C(N)=O)c1,inhibition of growth at 10 µM,K562 [1],15%
